Results from ChEMBL document CHEMBL1156666, “Jerantinines A-G, cytotoxic Aspidosperma alkaloids from Tabernaemontana corymbosa” (J Nat Prod, 2008).

What was measured:
[1] = Cytotoxicity against vincristine resistant human KB/VJ300 cells; type: functional, cell-based
[2] = Cytotoxicity against vincristine sensitive human KB/S cells; type: functional, cell-based

SMILES | IC50 [1] [nM] | IC50 [2] [nM]
CC[C@@]12CC(C(=O)OC)=C3Nc4cc(OC)c(O)cc4[C@@]34CCN(C(=O)[C@@H]3O[C@@H]31)[C@@H]24 [JERANTININE D] | 950 | 680
CC[C@]1(O)C[C@H]2CN(CCc3c([nH]c4ccccc34)[C@@](C(=O)OC)(c3cc4c(cc3OC)N(C=O)[C@H]3[C@@](O)(C(=O)OC)[C@H](OC(C)=O)[C@]5(CC)C=CCN6CC[C@]43[C@@H]65)C2)C1 [VINCRISTINE] | 1200 | 5.4
CC[C@]12C=CCN3CC[C@]4(C(=C(C(=O)OC)C1)Nc1cc(OC)c(OC)cc14)[C@@H]32 [10-O-METHYLJERANTININE A] | 13600 | 12000
CC[C@@]12CC(C(=O)OC)=C3Nc4cc(OC)c(OC(C)=O)cc4[C@@]34CCN(C[C@@H]3O[C@@H]31)[C@@H]24 [JERANTININE B ACETATE] | 750 | 700
CC[C@]12C=CCN3CC[C@]4(C(=C(C(=O)OC)C1)Nc1cc(OC)c(O)cc14)[C@@H]32 [JERANTININE A] | 1730 | 1990
CC[C@]12CCCN3CC[C@]4(C(=C(C(=O)OC)C1)Nc1cc(OC)c(O)cc14)[C@@H]32 [JERANTININE E] | 2030 | 2550
CC[C@]12C=CCN3CC[C@]4(C(=C(C(=O)OC)C1)Nc1cc(OC)c(OC(C)=O)cc14)[C@@H]32 [JERANTININE A ACETATE] | 830 | 1040
COC(=O)C1=C2Nc3cc(OC)c(O)cc3[C@@]23CCN2CC[C@@H]4OCC[C@]4(C1)[C@H]23 [JERANTININE F] | 12300 | 12800
CC[C@@]12CC(C(=O)OC)=C3Nc4cc(OC)c(O)cc4[C@@]34CCN(C[C@@H]3O[C@@H]31)[C@@H]24 [JERANTININE B] | 950 | 1110
CC[C@@]12CC(C(=O)OC)=C3Nc4cc(OC)c(OC)cc4[C@@]34CCN(C[C@@H]3O[C@@H]31)[C@@H]24 [10-O-METHYLJERANTININE B] | 10700 | 7360
CC[C@]12C=CC(=O)N3CC[C@]4(C(=C(C(=O)OC)C1)Nc1cc(OC)c(O)cc14)[C@@H]32 [JERANTININE C] | 1540 | 810
